Earlier results, collected in US12497429B2, “Saponin-based vaccine adjuvants” (priority 2018, dated 2025).

Conditions: compared to vaccine alone

Substance: monophosphoryl lipid A [MPL]
- boost of serum Ab titers: 10-20 fold
